Source: US20120065195A1, “COMPOUNDS FOR TREATING NEURODEGENERATIVE DISEASES” (priority 2010, published 2012)

Molecular target: T1, BACE1 (Homo sapiens, UniProt P56817)
T1 construct: endogenous in cells; host or cells: HEK-293 (stably transfected with wild type APP695 only)
Assay: Cellular BACE1 Inhibition Assay (in vitro cellular Amyloidβ 1-40 production assay, HTRF immunoassay)
Type: cell-based
Protocol: The BACE inhibition properties of the compounds of the invention may be determined by the following in vitro cellular Amyloidβ 1-40 production assay.
Inhibition of Amyloidβ1-40 production was determined by incubating cells with compound for 48 hours and quantifying the level of Amyloidβ 1-40 using an HTRF immunoassay.
Materials and Methods: HEK-293 cells stably transfected with a DNA construct containing the coding sequence for the wild type APP695 sequence were grown in DMEM supplemented with 10% fetal bovine serum, penicillin/streptomycin and 150 μg/mL G418. Cells were plated in 96-well plates at 35,000 cells/well and allowed to attach for 8-12 hours. Media was changed to DMEM supplemented with 10% fetal bovine serum, penicillin/streptomycin 15 minutes prior to compound addition. Diluted compounds were then added at a final concentration of 0.5% DMSO. After 48 hours, 4 μL of media from each well was added to a corresponding well of a 384 well plate (Perkin Elmer Cat#6008280) containing the HTRF reagents. HTRF reagents were obtained from the CisBio Amyloidβ 1-40 peptide assay kit (Cat#62B40PEC) and were prepared as follows anti-peptide β (1-40)-Cryptate and anti-peptide β (1-40)-XL655 were stored in 2 plate aliquots at −80° C. Diluent and Reconstitution buffer were stored at 4° C. Aliquots of the two antibodies were diluted 1:100 with Reconstitution buffer, and this mixture was diluted 1:2 with Diluent. 12 μL of the reagent mixture was added to the required wells of the 384 well assay plate. The assay plate was incubated at 4° C. for 17 hours and then analyzed for fluorescence at 665 and 620 nm.

T1 sequence (P56817 46-501): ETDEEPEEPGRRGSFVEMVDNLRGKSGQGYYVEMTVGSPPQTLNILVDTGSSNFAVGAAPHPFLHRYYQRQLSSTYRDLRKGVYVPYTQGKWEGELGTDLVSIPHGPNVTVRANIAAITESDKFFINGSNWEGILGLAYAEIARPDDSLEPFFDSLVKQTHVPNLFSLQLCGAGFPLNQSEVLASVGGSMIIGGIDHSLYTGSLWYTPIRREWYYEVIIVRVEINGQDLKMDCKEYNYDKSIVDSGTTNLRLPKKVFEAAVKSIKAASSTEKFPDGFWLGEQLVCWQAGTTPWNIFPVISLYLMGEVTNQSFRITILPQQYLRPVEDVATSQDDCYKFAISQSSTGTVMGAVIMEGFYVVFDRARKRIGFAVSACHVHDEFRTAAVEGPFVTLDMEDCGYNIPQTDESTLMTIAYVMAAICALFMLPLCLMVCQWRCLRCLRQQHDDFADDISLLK

Structure (SMILES)	IC50
CN1C(=O)C2(CC(C)(C)Cc3ccc(-c4cc(C(F)(F)F)ccn4)cc32)N=C1N (centres unmarked) [Example 139, 2-amino-1,3′,3′-trimethyl-7′-(4-(trifluoromethyl)pyridin-2-yl)-3′,4′-dihydro-2′H-spiro[imidazole-4,1′-naphthalen]-5(1H)-one]	0.0148 µM
CN1C(=O)[C@]2(C[C@@](C)(CO)Cc3ccc(-c4cc(F)cc(Cl)c4)cc32)N=C1N [Example 144, (1′R,3′S)-2-amino-7′-(3-chloro-5-fluorophenyl)-3′-(hydroxymethyl)-1,3′-dimethyl-3′,4′-dihydro-2′H-spiro[imidazole-4,1′-naphthalen]-5(1H)-one]	0.0033 µM
CN1C(=O)[C@]2(C[C@@](C)(Cc3ccccc3)Cc3ccc(-c4cncc(Cl)c4)cc32)N=C1N [Example 147, (1′R,3′S)-2-amino-3′-benzyl-7′-(5-chloropyridin-3-yl)-1,3′-dimethyl-3′,4′-dihydro-2′H-spiro[imidazole-4,1′-naphthalen]-5(1H)-one]	0.0013 µM
CN1C(=O)C2(N=C1N)c1cc(-c3cccnc3F)ccc1CC(C)(C)C2F (centres unmarked) [Example 156, 2-amino-2′-fluoro-7′-(2-fluoropyridin-3-yl)-1,3′,3′-trimethyl-3′,4′-dihydro-2′H-spiro[imidazole-4,1′-naphthalen]-5(1H)-one]	0.0172 µM
CN1C(=O)C2(N=C1N)c1cc(-c3cncnc3)ccc1CC(C)(C)C2F (centres unmarked) [Example 157, 2-amino-2′-fluoro-1,3′,3′-trimethyl-7′-(pyrimidin-5-yl)-3′,4′-dihydro-2′H-spiro[imidazole-4,1′-naphthalen]-5(1H)-one]	0.0396 µM
CN1C(=O)C2(N=C1N)c1cc(-c3cncc(Cl)c3)ccc1CC(C)(C)C2F (centres unmarked) [Example 158, 2-amino-7′-(5-chloropyridin-3-yl)-2′-fluoro-1,3′,3′-trimethyl-3′,4′-dihydro-2′H-spiro[imidazole-4,1′-naphthalen]-5(1H)-one]	0.0067 µM
CN1C(=O)C2(N=C1N)c1cc(-c3cccnc3F)ccc1CC(C)(C)C2(F)F (centres unmarked) [Example 159, 2-amino-2′,2′-difluoro-7′-(2-fluoropyridin-3-yl)-1,3′,3′-trimethyl-3′,4′-dihydro-TH-spiro[imidazole-4,1′-naphthalen]-5(1H)-one]	0.0261 µM
CN1C(=O)C2(N=C1N)c1cc(-c3cncnc3)ccc1CC(C)(C)C2(F)F (centres unmarked) [Example 160, 2-amino-2′,2′-difluoro-1,3′,3′-trimethyl-7′-(pyrimidin-5-yl)-3′,4′-dihydro-2′H-spiro[imidazole-4,1′-naphthalen]-5(1H)-one]	0.0873 µM
